Data: article PMC11393731, “Sidechain structure–activity relationships of cyclobutane-based small molecule αvβ3 antagonists” (RSC Medicinal Chemistry, 2024)
“Also recorded” adds a separate entry of the source. Like-named read-outs stand apart in the source and are kept apart here.

Columns and labels:
[1] = Metabolic stability in mouse liver homogenates; type: in vitro ADME; conditions: for half-life at 10 μM: liver homogenate (1:3), 37 °C, read-out: half-life of methyl ester cleavage to free acid
Method: The methyl esters in 1 and 54 were cleaved to the corresponding free acids with half-lives of 5.4 minutes and 3.6 minutes respectively (ESI ^†). This was expected as small esters are frequently used to mask carboxylic acids with rapid ester hydrolysis releasing the active carboxylic acid in biological systems.
Compound metabolism in liver (ex vivo) was studied using (1 : 3) tissue homogenates of mouse liver. Mouse livers, supplied by the Institute of Cancer Therapeutics (ICT), under Home Office license guidelines (see below) were homogenized in phosphate-buffered saline. Liver homogenates were spiked with compound of interest (10 μM final concentration) and incubated at 37 °C. Reaction aliquots were removed over a 120 minute period, proteins precipitated using acetonitrile (1 : 3), and compound and metabolites analyzed by liquid chromatography-mass spectrometry (LC–MS) at the appropriate SIR (single ion recording) channel.
Detection was performed on a Waters Alliance system using a photodiode array detector, and a Waters Micromass ZQ quadrupole electrospray mass spectrometer connected in series. Compound and metabolites were separated on a RPB reversed-phase high-performance liquid chromatography column (HiChrom) using a mobile phase of acetonitrile/water/0.1% formic acid, with a gradient from 20% to 70% acetonitrile over 30 minutes at 1.1 mL min^−1.
Any metabolic intermediates were detected as singularly charged ions and identified by mass spectrometry.

[2] = system: U87-MG glioblastoma cells; assay: U87-MG 3-D spheroid invasion assay; type: cell-based; conditions: Homo sapiens, U-87 MG, mean ± SD
Method: Selected compounds were further investigated for effects on αvβ3-mediated cell invasion to model a key step in tumour progression and metastasis. U87-MG glioblastoma cells; a well-known αvβ3-expressing cell line model,[35,36] were used in a 3-D spheroid invasion model.[37]
(§1) Cancer cell lines were obtained from ATCC (SK-Mel-2) or ECACC (U87-MG) and cultured in RPMI-1640 culture medium containing 10% foetal bovine serum (FBS), sodium pyruvate (1 mM) and L-glutamine (2 mM). All are human in origin. The αvβ3 adhesion assay was performed as previously described.[22,43]
Spheroids were formed from U87-MG cells (1000 cells per 30 μl hanging drop) according to the method of Nowicki and then embedded in collagen as follows.[37] Collagen I (1400 μL of 3 mg mL^−1) was added to a 1 mL Eppendorf tube on ice, supplemented with 0.2 mL of complete RPMI, and adjusted to pH 7.4 with 1 N NaOH. The collagen mixture was pipetted into each chamber of an 8-chamber cover glass and incubated at 37 °C for 45 minutes. Spheroids from hanging drops were transferred to each chamber of the cover glass, the medium allowed to evaporate, and then a 200 μL layer of collagen gel matrix was added to each chamber and incubated at 37 °C for 45 minutes. 200 μL of RPMI containing test compounds was added to each chamber and incubated at 37 °C, 5% CO2 for 7 days. The spheroids were observed frequently using inverted light microscopy at 10× objective lens, and images were captured and analysed using ImageJ.

αvβ3 = target: T1, αvβ3 (Homo sapiens, UniProt P05106+P06756); assay: αvβ3-mediated SK-Mel-2 melanoma cell adhesion to fibronectin; type: cell-based; conditions: for inhibition at 5 µM: read-out: Adhesion % inhibition @5 μM
T1 construct: αvβ3-expressing U87-MG glioblastoma and SK-Mel-2 melanoma cells; host or cells: SK-Mel-2 human melanoma cells
T1 sequence (P06756 31-889 limits assumed): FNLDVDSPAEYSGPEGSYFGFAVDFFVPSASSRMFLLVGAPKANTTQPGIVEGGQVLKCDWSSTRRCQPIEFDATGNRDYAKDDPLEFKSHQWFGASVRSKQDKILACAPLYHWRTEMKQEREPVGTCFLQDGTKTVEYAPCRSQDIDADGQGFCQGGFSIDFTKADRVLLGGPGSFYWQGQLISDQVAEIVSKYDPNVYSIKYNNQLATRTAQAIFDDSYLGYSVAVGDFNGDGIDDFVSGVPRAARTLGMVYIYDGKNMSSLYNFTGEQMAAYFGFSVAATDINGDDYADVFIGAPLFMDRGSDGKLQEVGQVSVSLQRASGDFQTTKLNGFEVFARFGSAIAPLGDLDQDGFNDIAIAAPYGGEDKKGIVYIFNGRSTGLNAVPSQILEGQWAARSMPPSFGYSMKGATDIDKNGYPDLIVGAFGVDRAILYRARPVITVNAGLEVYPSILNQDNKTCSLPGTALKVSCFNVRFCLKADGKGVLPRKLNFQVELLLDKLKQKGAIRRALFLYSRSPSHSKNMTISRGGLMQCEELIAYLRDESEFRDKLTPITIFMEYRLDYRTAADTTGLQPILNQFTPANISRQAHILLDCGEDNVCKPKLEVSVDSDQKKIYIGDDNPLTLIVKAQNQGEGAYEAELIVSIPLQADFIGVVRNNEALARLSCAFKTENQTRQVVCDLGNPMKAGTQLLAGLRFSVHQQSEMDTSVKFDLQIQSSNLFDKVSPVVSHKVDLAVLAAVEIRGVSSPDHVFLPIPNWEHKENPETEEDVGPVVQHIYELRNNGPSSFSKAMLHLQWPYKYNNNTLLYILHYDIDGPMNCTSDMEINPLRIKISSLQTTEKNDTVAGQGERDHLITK
T1 sequence (P06756 891-1048 partner limits assumed): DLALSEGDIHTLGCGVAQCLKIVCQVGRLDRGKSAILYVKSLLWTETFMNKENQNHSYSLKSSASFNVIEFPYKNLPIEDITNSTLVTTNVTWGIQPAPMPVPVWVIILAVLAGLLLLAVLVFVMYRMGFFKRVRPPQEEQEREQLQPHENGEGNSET
T1 sequence (P05106 27-788): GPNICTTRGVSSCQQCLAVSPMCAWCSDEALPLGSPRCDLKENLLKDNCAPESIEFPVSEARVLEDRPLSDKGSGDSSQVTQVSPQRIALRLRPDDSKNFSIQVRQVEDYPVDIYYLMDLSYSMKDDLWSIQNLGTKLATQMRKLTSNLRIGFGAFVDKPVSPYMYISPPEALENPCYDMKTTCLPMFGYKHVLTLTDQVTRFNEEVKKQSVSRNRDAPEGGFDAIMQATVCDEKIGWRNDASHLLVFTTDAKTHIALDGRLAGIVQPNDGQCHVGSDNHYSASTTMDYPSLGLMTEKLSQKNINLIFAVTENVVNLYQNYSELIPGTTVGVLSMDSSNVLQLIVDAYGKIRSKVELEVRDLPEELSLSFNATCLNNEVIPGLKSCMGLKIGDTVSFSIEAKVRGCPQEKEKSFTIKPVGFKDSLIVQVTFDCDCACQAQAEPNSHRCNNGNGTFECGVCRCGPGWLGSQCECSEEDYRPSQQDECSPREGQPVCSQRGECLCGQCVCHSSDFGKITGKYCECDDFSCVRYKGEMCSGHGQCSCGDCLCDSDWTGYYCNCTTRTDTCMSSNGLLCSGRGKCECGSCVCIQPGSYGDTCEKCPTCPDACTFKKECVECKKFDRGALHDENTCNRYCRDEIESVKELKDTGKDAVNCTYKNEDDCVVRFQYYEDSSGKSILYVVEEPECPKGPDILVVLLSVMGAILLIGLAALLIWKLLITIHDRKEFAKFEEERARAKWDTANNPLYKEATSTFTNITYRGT
Method: as §1

in vitro [3] = type: cell-based; conditions: human
From the text: (§2) Compounds were screened for non-specific cytotoxicity using the MTT assay before use in anti-αvβ3 functional assays. Unlike normal cells, cancer cell survival is often independent of αvβ3, and checking for cytotoxicity ensures inhibition of adhesion and invasion are truly from αvβ3 inhibition rather than cell death. […] In general, aminopyridines 53 and 54 were more cytotoxic than most THN-containing mimetics.
as §1
(§3) Table S1 Cytotoxicity of compounds on the cell lines used in the functional assays (measured by MTT assay). Cells (2000 cells/well for Sk-Mel-2; 1000 cells/well for U87MG) were incubated for 96 hours at 37 °C in a total volume of 200 µL/well (180 μL medium + 20 μL test compound solution). After 96 hours, the medium was replaced by fresh medium containing 0.5 mg/ml (end conc.) MTT per well, incubated for 4 h then the plate processed and read as described in Sutherland et al. 1 […]
(§4) 1. M. Sutherland, A. Gordon, F. O. Al-Shammari, A. Throup, A. Cilia La Corte, H. Philippou, S. D.
(§5) Shnyder, L. H. Patterson and H. M. Sheldrake, Cancers, 2023, 15, 4023.
(§6) (also on this page, place not known: al.1 Supplementary Information (SI) for RSC Medicinal Chemistry. This journal is © The Royal Society of Chemistry 2024)
(§7) (1 picture or pasted object on this page, not shown here)

in vitro [4] = type: cell-based; conditions: human; remark: listed apart in the source
From the text: as §2, §1, §3, §4, §5, §6, §7

C57BL/6 mice = assay: In vivo dose tolerability in C57BL/6 mice; parameters: species or system mouse; conditions: intraperitoneal, 4 consecutive days, female C57BL/6 mice
Method: Given compound 54's effectiveness at functional inhibition of αvβ3, its rapid conversion to a stable carboxylic acid, and our preference for developing an aminopyridine-based RGD mimetic over a THN-based one, 54 was therefore selected for in vivo dose tolerability studies in an immunocompetent C57BL/6 mouse model (Fig. 2).
Compound 54 was administered intraperitoneally three dose levels, up to its maximum soluble dose of 300 mg kg^−1 per day, for 4 consecutive days to female C57BL/6 immunocompetent mice, and mice were observed daily, and bodyweight measured frequently. […] Mo = mouse; Cont = solvent control.
Female adult C57BL/6 mice were used (Envigo, Blackthorn, UK). Mice all came from the same delivery and were randomly assigned to cages. They were kept in cages housed in isolation cabinets in an air-conditioned room with regular alternating cycles of light and darkness. They received Teklad 2018 diet (Envigo, Blackthorn, UK) and water ad libitum.
For evaluation of the safety of compound 54in vivo, the compound was dissolved in 15% DMSO/arachis oil, and then administered intraperitoneally as a single dose on four consecutive days, with the first day designated day 0, with 2 mice being treated at each dose level. The control was solvent administered intraperitoneally on the same schedule. […] Mice were observed daily for signs of deleterious effects, and bodyweight measured frequently.

[5] = SK-Mel-2 adhesion to fibronectin, mean ± SD
[6] = read-out: Adhesion % inhibition @50 μM, SK-Mel-2 adhesion to fibronectin, mean ± SD
[7] = SK-MEL-2, read-out: Adhesion % inhibition @50 μM (initial trial experiment), initial trial experiment, not tested further at this concentration

Compound | inhibition at 10 µM [2] [%] | IC50 (αvβ3; [5]) [µM] | inhibition at 5 µM (αvβ3; [5]) [%] | IC50 at 96 h (in vitro [4]) [µM] | inhibition at 50 µM (αvβ3; [7]) [%] | other results
COC(=O)[C@H](CNC(=O)[C@H]1C[C@@H](CCc2ccc3c(n2)NCCC3)C1)NS(=O)(=O)c1c(C)cc(C)cc1C [Compound 1] | 60.2 ± 0.2 | 0.34 ± 0.33 | 98.4 ± 1.9 |  |  | half-life at 10 μM [1]: 5.4 min
COC(=O)[C@H](CCNC(=O)[C@H]1C[C@@H](Cc2ccc3cccnc3n2)C1)NS(=O)(=O)c1ccccc1 [Compound 17] | 23.3 ± 6.2 |  |  |  |  | inhibition at 50 µM (αvβ3; [6]): 13 ± 25%
COC(=O)[C@H](CCNC(=O)[C@H]1C[C@@H](Cc2ccc3cccnc3n2)C1)NS(=O)(=O)c1c(C)cc(C)cc1C [Compound 18] | 17.4 ± 3.7 |  |  |  |  | IC50 at 96 h (in vitro [3]): 59.2 ± 16.9 µM
COC(=O)[C@H](CCNC(=O)[C@H]1C[C@@H](CCc2ccc3cccnc3n2)C1)NS(=O)(=O)c1ccccc1 [Compound 19] |  |  | 54 ± 15 | > 50 | > 75 | 
COC(=O)[C@H](CCNC(=O)[C@H]1C[C@@H](CCc2ccc3cccnc3n2)C1)NS(=O)(=O)c1c(C)cc(C)cc1C [Compound 20] | 55.7 ± 1.2 | 11.5 ± 5.3 | 43 ± 6 |  | > 75 | 
COC(=O)[C@H](CCNC(=O)[C@H]1C[C@@H](Cc2ccc3c(n2)NCCC3)C1)NS(=O)(=O)c1ccccc1 [Compound 21] | 49.5 ± 8.8 | 29.4 ± 2.1 | 4 ± 9 |  | > 75 | 
COC(=O)[C@H](CCNC(=O)[C@H]1C[C@@H](Cc2ccc3c(n2)NCCC3)C1)NS(=O)(=O)c1c(C)cc(C)cc1C [Compound 22] | 22.9 ± 5.7 |  | 83 ± 19 | > 50 | > 75 | IC50 at 96 h (in vitro [3]): 46.4 ± 3.5 µM
COC(=O)[C@H](CCNC(=O)[C@H]1C[C@@H](CCc2ccc3c(n2)NCCC3)C1)NS(=O)(=O)c1ccccc1 [Compound 23] |  |  | 57 ± 13 | > 50 | > 75 | 
COC(=O)[C@H](CCNC(=O)[C@H]1C[C@@H](CCc2ccc3c(n2)NCCC3)C1)NS(=O)(=O)c1c(C)cc(C)cc1C [Compound 24] | 35 ± 9 |  | 74 ± 10 |  | > 75 | 
COC(=O)[C@H](CC(=O)N[C@H]1C[C@@H](CCc2ccc3cccnc3n2)C1)NS(=O)(=O)c1ccccc1 [Compound 28] | 28.5 ± 4.4 |  |  |  |  | inhibition at 50 µM (αvβ3; [6]): 42.4 ± 16.3%
COC(=O)[C@H](CC(=O)N[C@H]1C[C@@H](CCc2ccc3cccnc3n2)C1)NS(=O)(=O)c1c(C)cc(C)cc1C [Compound 29] | 70.4 ± 1.4 |  |  |  |  | inhibition at 50 µM (αvβ3; [6]): 56.6 ± 15.3%
O=C1C[C@H](NS(=O)(=O)c2ccccc2)C(=O)N1[C@H]1C[C@@H](CCc2ccc3cccnc3n2)C1 [Compound 30] | 22.6 ± 4 |  | 39.9 ± 23.8 |  |  | 
Cc1cc(C)c(S(=O)(=O)N[C@H]2CC(=O)N([C@H]3C[C@@H](CCc4ccc5cccnc5n4)C3)C2=O)c(C)c1 [Compound 31] |  | 49.5 ± 29.8 | 13.8 ± 9.7 | > 100 |  | inhibition at 50 µM (αvβ3; [6]): 60.9 ± 23.8%
COC(=O)[C@H](CC(=O)N[C@H]1C[C@@H](CCc2ccc3c(n2)NCCC3)C1)NS(=O)(=O)c1ccccc1 [Compound 32] | 41.6 ± 4.7 |  | 45.4 ± 13.7 |  |  | 
COC(=O)[C@H](CC(=O)N[C@H]1C[C@@H](CCc2ccc3c(n2)NCCC3)C1)NS(=O)(=O)c1c(C)cc(C)cc1C [Compound 33] | 33.7 ± 7.4 | 1.2 ± 0.9 | 89.5 ± 8.7 |  |  | 
O=C1C[C@H](NS(=O)(=O)c2ccccc2)C(=O)N1[C@H]1C[C@@H](CCc2ccc3c(n2)NCCC3)C1 [Compound 34] | 69.9 ± 1.8 | 3.28 ± 0.01 | 60.2 ± 14.8 |  |  | inhibition at 50 µM (αvβ3; [6]): 73.9 ± 24.6%
Cc1cc(C)c(S(=O)(=O)N[C@H]2CC(=O)N([C@H]3C[C@@H](CCc4ccc5c(n4)NCCC5)C3)C2=O)c(C)c1 [Compound 35] |  | 1.8 ± 1 |  | 15.2 ± 5.5 |  | inhibition at 0.5 µM (αvβ3; 0.5 μM, SK-Mel-2 adhesion to fibronectin): 45.6%
CC(C)(C)OC(=O)C[C@H](NS(=O)(=O)c1ccccc1)C(=O)N[C@H]1C[C@@H](CCc2ccc3cccnc3n2)C1 [Compound 37] |  | 13.6 ± 8.3 | 50 ± 17 | > 50 | > 75 | 
O=C(O)C[C@H](NS(=O)(=O)c1ccccc1)C(=O)N[C@H]1C[C@@H](CCc2ccc3cccnc3n2)C1 [Compound 38] |  |  |  | > 50 |  | inhibition at 50 µM (αvβ3; [6]): 43 ± 31%
CC(C)(C)OC(=O)C[C@H](NS(=O)(=O)c1ccccc1)C(=O)N[C@H]1C[C@@H](CCc2ccc3c(n2)NCCC3)C1 [Compound 39] |  |  | 71 ± 16 | 35.2 ± 6.5 | > 75 | 
O=C(O)C[C@H](NS(=O)(=O)c1ccccc1)C(=O)N[C@H]1C[C@@H](CCc2ccc3c(n2)NCCC3)C1 [Compound 40] |  |  | 67 ± 16 | > 50 | > 75 | 
CNc1cccc(CC[C@H]2C[C@@H](C(=O)NC[C@H](NS(=O)(=O)c3ccccc3)C(=O)OC)C2)n1 [Compound 53] | 62.9 ± 1.5 | 1.8 ± 0.4 | 85 ± 1.4 |  |  | 
CNc1cccc(CC[C@H]2C[C@@H](C(=O)NC[C@H](NS(=O)(=O)c3c(C)cc(C)cc3C)C(=O)OC)C2)n1 [Compound 54] | 48.6 ± 1 | 0.6 ± 0.7 | 84.9 ± 11.2 |  |  | half-life at 10 μM [1]: 3.6 min; toxicity / deleterious effects (C57BL/6 mice; three dose levels up to 300 mg kg^−1 per day): No deleterious effects were observed; also recorded: non-toxic; bodyweight (C57BL/6 mice; up to 300 mg kg^−1 per day): remained within normal levels
CNc1cccc(CC[C@H]2C[C@@H](C(=O)NC[C@H](NS(=O)(=O)c3c(C)cc(C)cc3C)C(=O)O)C2)n1 [Compound 55] |  |  |  |  |  | stability of metabolite in liver ([1]; mouse liver homogenate): appears to be stable
CC(C)[C@@H]1NC(=O)[C@@H](Cc2ccccc2)NC(=O)[C@H](CC(=O)O)NC(=O)CNC(=O)[C@H](CCCN=C(N)N)NC1=O [cRGDfV, reference compound] |  |  |  |  |  | IC50 at 96 h (in vitro [3]): 69.2 ± 25.5 µM
